These results are taken from patent US7332279B2 (Glycozym APS, priority 1999, dated 2008).

In this experiment the target is T1, β4Gal-T3 (Homo sapiens, UniProt O60512).
T1 construct: The kinetic properties were determined with partially purified, secreted forms of the enzymes; made in house; host or cells: baculovirus; insect cells (Sf9 / High Five)
Description: Galactosyltransferase assay, recombinant β4Gal-T3, saccharide acceptors. Type of experiment: biochemical. On the procedure:
An expression construct (pAcGP67-β3Gal-T5-sol) designed to exclude the hydrophobic transmembrane segment and to encode amino acid residues 25-310, was prepared by PCR using P1 genomic DNA, and the primer pair EBER1300 sol (5′-[…]) (SEQ ID NO:3) and EBER1310 (5′-[…]) (SEQ ID NO:4) (FIG. 1), which included BamHI restriction sites. PCR product was cloned into the BamHI site of pAcGP67B (Pharmingen). An expression construct (pVL-β3Gal-T5-full) designed to encode the full coding sequence (from first ATG, FIG. 1) was prepared by PCR with P1 genomic DNA using the primer pair EBER1309 (5′-[…]) (SEQ ID NO:5) and EBER1310. This PCR product was cloned into the BamHI site of pVL1193 (Pharmingen). Both soluble and full length constructs were fully sequenced to confirm fidelity. Plasmids pAcGP67-β3GalT5-sol and pVL-β3Gal-T5-full were co-transfected with Baculo-Gold™ DNA (Pharmingen) as described previously (Bennett, E. P., Hassan, H. and Clausen, H. cDNA cloning and expression of a novel human UDP-N-acetyl-alpha-D-galactosamine. Polypeptide N-acetyl-galactosaminyl-transferase, GalNAc-T3. J. Biol. Chem. 271:17006-17012, 1996). Recombinant Baculo-virus were obtained after two successive amplifications in Sf9 cells grown in serum-containing medium, and titers of virus were estimated by titration in 24-well plates with monitoring of enzyme activities. […] Polypeptide N-acetyl-galactosaminyl-transferase, GalNAc-T3. J. Biol. Chem. 271:17006-17012, 1996). For large scale expression amplified virus was used to infect High Five™ cells grown in serum-free media (Invitrogen) in upright roller bottles shaking at 140 rpm and 27° C.
The kinetic properties were determined with partially purified, secreted forms of the enzymes. Semipurification of enzymes from serum-free medium of infected High-Five™ cells was performed by sequential Amberlite, DEAE-Sephacel and 5-Sepharose chromatography as described previously (Wandall, H. H., Hassan, H., Mirgorodskaya, E., et al. Substrate specificities of three. members of the human UDP-N-acetyl-alpha-D-galactosamine:Polypeptide Nacetylgalactosaminyltransferase family, GalNAc-T1, -T2, and -T3. J. Biol. Chem. 272:23503-23514, 1997). Comparisons of enzymes were performed relatively to the activity obtained with βGlcNAc-Bz1 (Tables II and III). Full length enzymes were assayed with 1% Triton CF54 homogenates of washed cells. Enzyme assays were performed in 50 μl total reaction mixtures containing 25 mM Cacodylate (pH 7.5), 10 mM MnCl2, 0.25% Triton X-100, 100 μM UDP-[^14C]-Gal (2,600 cpm/nmol) (Amersham), and varying concentrations of acceptor substrates (Sigma) (see Table I for structures). Reaction products were quantified by Dowex-1 chromatography. […] The transfer of Gal was evaluated after acid precipitation by filtration through Whatman GF/C glass fibre filters. […] Assays with glycolipid acceptors were conducted as previously described (Holmes, E. H. Characterization and membrane organization of beta 1-3- and beta 1-4-galactosyltransferases from human colonic adenocarcinoma cell lines Cob 205 and SW403: basis for preferential synthesis of type 1 chain lacto-series carbohydrate structures. Arch Biochem Biophys 270:630-646, 1989) in reaction mixtures containing 2.5 μmol HEPES buffer, pH 7.2, μmol MnCl2, 100 μg taurodeoxycholate or Triton CF-54, 20 μg acceptor glycolipid, 15 nmol UDP-[^14C]-galactose (13,000 cpm/nmol) and enzyme in a total volume of 100 μl. Conditions for incubation and product isolation were as previously described (Id.).

T1 sequence (O60512 32-393 limits assumed): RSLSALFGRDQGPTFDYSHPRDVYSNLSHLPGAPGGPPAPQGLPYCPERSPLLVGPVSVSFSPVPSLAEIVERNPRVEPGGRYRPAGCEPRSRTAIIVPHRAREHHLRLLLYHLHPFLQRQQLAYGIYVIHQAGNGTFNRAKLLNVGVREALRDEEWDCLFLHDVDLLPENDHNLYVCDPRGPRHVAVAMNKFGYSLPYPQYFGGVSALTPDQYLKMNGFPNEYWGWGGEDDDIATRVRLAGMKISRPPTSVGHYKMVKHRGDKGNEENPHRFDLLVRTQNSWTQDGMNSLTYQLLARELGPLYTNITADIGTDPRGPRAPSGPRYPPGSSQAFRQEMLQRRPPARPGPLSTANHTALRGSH

As for `CC(=O)NC1C(OC2C(O)C(CO)OC(Oc3ccc([N+](=O)[O-])cc3)C2NC(C)=O)OC(CO)C(O)C1O` [β-D-GlcNAc-(1–3)-α-D-GalNAc-p-Nph], where the note is “0.2 mM”, the “β4Gal-T3 activity, acceptor 0.2 mM” value was 0.1 nmol/min and the “β4Gal-T3 ratio to value with βGlcNAc-Bzl, acceptor 0.2 mM” value was “(0.3)”. Moreover, where the note is “2 mM”, the “β4Gal-T3 activity, acceptor 2 mM” value stood at 0.03 nmol/min and the “β4Gal-T3 ratio to value with βGlcNAc-Bzl, acceptor 2 mM” value is reported as “(1.0)”.

As for `CC(=O)N[C@H]1[C@H](OCc2ccccc2)O[C@H](CO)[C@@H](O)[C@@H]1O` [β-D-GlcNAc-Bzl], the “β4Gal-T3 activity with βGlcNAc-Bzl” value (β-D-GlcNAc-Bzl at 2 mM) was determined as 0.03 nmol/min.
